US11512090B2, “Muscarinic acetylcholine M1 receptor antagonists” (PIPELINE THERAPEUTICS, INC., priority 2018, dated 2022)
Read-outs that look alike come from different tables or passages of the source.

Key:
Type in all cases: cell-based
[1] = biological target: T1, human M1 receptor (Homo sapiens, UniProt P11229); test: In vitro functional assay of muscarinic acetylcholine receptor activity (aequorin calcium flux, antagonist mode vs EC80 acetylcholine), M1
T1 sequence (P11229 1-460): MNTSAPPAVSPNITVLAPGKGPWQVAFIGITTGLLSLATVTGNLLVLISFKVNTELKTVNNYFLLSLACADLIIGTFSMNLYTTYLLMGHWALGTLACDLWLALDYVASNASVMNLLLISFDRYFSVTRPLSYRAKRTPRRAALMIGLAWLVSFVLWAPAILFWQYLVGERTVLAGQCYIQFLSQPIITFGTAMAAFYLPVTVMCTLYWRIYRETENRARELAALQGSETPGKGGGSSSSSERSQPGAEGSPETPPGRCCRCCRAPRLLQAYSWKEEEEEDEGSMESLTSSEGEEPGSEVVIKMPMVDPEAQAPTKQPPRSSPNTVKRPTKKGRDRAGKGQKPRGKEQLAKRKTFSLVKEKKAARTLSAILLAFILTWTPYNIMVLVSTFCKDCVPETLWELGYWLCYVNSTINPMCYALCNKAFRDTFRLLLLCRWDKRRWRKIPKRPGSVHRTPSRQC
Method: CHO-K1 cells stably expressing human M1 receptor with Aequorin (Perkin Elmer) were grown in F12 media, 10% FBS with 0.4 mg/mL geneticin and […]. Cells were grown to confluence and frozen down to be assayed at a later date. On the day of the experiment cells were thawed in a 37° C. water bath, resuspended in DMEM/HAM's F12 with HEPES (Invitrogen)+0.1% protease-free BSA (assay buffer), and spun down to remove freezing media. After centrifugation, supernatant was removed and 12 mL of assay buffer was added. Coelenterazine h (Promega) was added to the cells at a final concentration of 5 uM and incubated for 4 hours at room temperature in the dark. Compound master plate-96 deep well (Corning) were formatted in a 8-point DRC in assay buffer with 0.2% DMSO at a starting concentration of 60 uM (2×). After 4 hours of incubation, cells were plated at a concentration of 5×10^5 cells/well in 96 well white-walled, tissue culture-treated, clear-bottom plates (VWR). Compounds were added to the daughter plate, and cells plus compound were incubated at room temperature for 30 minutes in the dark.
Calcium flux was measured using the FlexStation 3 (Molecular Devices). To measure the antagonist dose-response, the EC80 of Acetylcholine was injected to the daughter plate using the automated compound transfer function of the Flex Station, and the increase in luminescence was measured over time. Antagonist activity was analyzed as a concentration dependent decrease in the EC80 acetylcholine response. Dose response curves were generated using Prism (GraphPad Software). The IC50 of the compounds was calculated from the dose response curve.

[2] = biological target: T2, M2 (Homo sapiens, UniProt P08172); test: In vitro functional assay of muscarinic acetylcholine receptor activity, M2
T2 sequence (P08172 1-466): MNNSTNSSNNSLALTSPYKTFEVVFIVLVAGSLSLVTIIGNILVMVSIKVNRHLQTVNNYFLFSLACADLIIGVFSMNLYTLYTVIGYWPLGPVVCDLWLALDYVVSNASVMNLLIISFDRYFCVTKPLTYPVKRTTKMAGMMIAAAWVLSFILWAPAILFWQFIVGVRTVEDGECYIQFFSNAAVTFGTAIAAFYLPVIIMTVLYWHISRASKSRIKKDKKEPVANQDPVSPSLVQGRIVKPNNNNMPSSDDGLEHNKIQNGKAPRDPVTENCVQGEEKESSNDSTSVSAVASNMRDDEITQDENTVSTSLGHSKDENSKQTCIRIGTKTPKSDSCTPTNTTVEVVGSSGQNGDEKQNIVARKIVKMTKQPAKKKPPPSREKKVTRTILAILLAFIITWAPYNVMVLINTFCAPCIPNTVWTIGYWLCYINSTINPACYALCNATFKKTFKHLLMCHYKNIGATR

[3] = biological target: M3 (Homo sapiens, UniProt P20309); test: In vitro functional assay of muscarinic acetylcholine receptor activity, M3
[4] = antagonist IC50 at M2, read-out: M2 IC50
[5] = antagonist IC50 at M3, read-out: M3 IC50
[6] = CHO-K1 cells stably expressing human M1 receptor with Aequorin, decrease in EC80 acetylcholine response, read-out: M1 IC50

M3, sequence (P20309 whole entry): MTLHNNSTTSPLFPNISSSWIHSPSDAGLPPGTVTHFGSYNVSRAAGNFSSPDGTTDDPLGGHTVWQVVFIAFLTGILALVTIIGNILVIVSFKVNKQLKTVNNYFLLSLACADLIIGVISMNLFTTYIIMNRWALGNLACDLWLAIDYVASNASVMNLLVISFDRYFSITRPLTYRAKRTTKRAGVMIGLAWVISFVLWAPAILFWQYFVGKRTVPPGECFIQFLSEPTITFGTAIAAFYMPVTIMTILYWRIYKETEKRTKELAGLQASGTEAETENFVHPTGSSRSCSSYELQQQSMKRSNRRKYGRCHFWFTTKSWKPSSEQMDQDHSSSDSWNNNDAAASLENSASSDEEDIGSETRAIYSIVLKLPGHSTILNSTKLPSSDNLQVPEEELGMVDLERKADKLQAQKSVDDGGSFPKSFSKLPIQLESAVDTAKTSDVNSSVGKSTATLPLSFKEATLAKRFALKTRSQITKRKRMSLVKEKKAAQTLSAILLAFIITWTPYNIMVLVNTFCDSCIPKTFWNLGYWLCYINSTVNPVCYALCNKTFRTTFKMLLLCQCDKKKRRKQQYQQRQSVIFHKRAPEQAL

IC50 [1, 6] [µM]	SMILES	IC50 [1] [µM]	IC50 [2, 4] [µM]	IC50 [3, 5] [µM]	IC50 [2] [µM]	IC50 [3] [µM]
–	N#Cc1ccc(N2[C@@H]3CC[C@H]2CN(C(=O)COCc2cccc4nccnc24)C3)nc1 [Example 38, 6-((1R, 5S)-3-(2-(quinoxalin-5-ylmethoxy)acetyl)-3,8-diazabicyclo[3.2.1]octan-8-yl)nicotinonitrile]	< 0.1	0.1 to 1	1 to 10	–	–
–	N#Cc1ccc(N2C3CCC2CN(C(=O)CCOCc2cccc4ncnn24)C3)nc1 [Example 39, 6-{3-[3-({[1,2,4]triazolo[1,5-a]pyridin-5-yl}methoxy)propanoyl]-3,8-diazabicyclo[3.2.1]octan-8-yl}pyridine-3-carbonitrile]	< 0.1	1 to 10	1 to 10	–	–
–	N#Cc1ccc(N2[C@@H]3CC[C@H]2CN(C(=O)CCOCc2cccc4ncccc24)C3)nc1 [Example 40, 6-((1R, 5S)-3-(3-(quinolin-5-ylmethoxy)propanoyl)-3,8-diazabicyclo[3.2.1]octan-8-yl)nicotinonitrile]	< 0.1	–	> 10	0.1 to 1	–
–	N#Cc1ccc(N2C3CCC2CN(C(=O)CCOCc2cccn4ncnc24)C3)nc1 [Example 42, 6-{3-[3-({[1,2,4]triazolo[1,5-a]pyridin-8-yl}methoxy)propanoyl]-3,8-diazabicyclo[3.2.1]octan-8-yl}pyridine-3-carbonitrile]	< 0.1	1 to 10	1 to 10	–	–
–	N#Cc1ccc(N2C3CCC2CN(C(=O)COCCc2cccc4nccnc24)C3)nc1 [Example 43, 6-(3-{2-[2-(quinoxalin-5-yl)ethoxy]acetyl}-3,8-diazabicyclo[3.2.1]octan-8-yl)pyridine-3-carbonitrile]	0.1 to 1	–	–	1 to 10	> 10
–	N#Cc1ccc(N2C3CCC2CN(C(=O)CCCCc2cccc4ncsc24)C3)nc1 [Example 44, 6-{3-[5-(1,3-benzothiazol-7-yl)pentanoyl]-3,8-diazabicyclo[3.2.1]octan-8-yl}pyridine-3-carbonitrile]	< 0.1	–	1 to 10	0.1 to 1	–
–	N#Cc1ccc(N2[C@@H]3CC[C@H]2CN(C(=O)[C@H]2C[C@H](Nc4cccc5ncccc45)C2)C3)nc1 [Example 45, 6-(3-{3-[(quinolin-5-yl)amino]cyclobutanecarbonyl}-3,8-diazabicyclo[3.2.1]octan-8-yl)pyridine-3-carbonitrile]	0.1 to 1	1 to 10	> 10	–	–
–	N#Cc1ccc(N2C3CCC2CN(C(=O)N2CC(=Cc4cccc5ncccc45)C2)C3)nc1 [Example 46, 6-(3-{3-[(quinolin-5-yl)methylidene]azetidine-1-carbonyl}-3,8-diazabicyclo-[3.2.1]octan-8-yl)pyridine-3-carbonitrile]	0.1 to 1	1 to 10	1 to 10	–	–
–	O=C(CCOCc1cccc2ncccc12)N1C[C@H]2CC[C@@H](C1)N2c1ccc(F)cn1 [Example 48, 1-((1R,5S)-8-(5-fluoropyridin-2-yl)-3,8-diazabicyclo[3.2.1]octan-3-yl)-3-(quinolin-5-ylmethoxy)propan-1-one]	0.1 to 1	1 to 10	> 10	–	–
–	O=C(CCOCc1cccc2cnccc12)N1C[C@H]2CC[C@@H](C1)N2c1ccc(F)cn1 [Example 49, 1-((1R,5S)-8-(5-fluoropyridin-2-yl)-3,8-diazabicyclo[3.2.1]octan-3-yl)-3-(isoquinolin-5-ylmethoxy)propan-1-one]	0.1 to 1	1 to 10	> 10	–	–
–	Cc1cc(F)cnc1N1[C@@H]2CC[C@H]1CN(C(=O)CCCc1cccc3ncccc13)C2 [Example 52, 1-((1R,5S)-8-(5-fluoro-3-methylpyridin-2-yl)-3,8-diazabicyclo[3.2.1]octan-3-yl)-4-(quinolin-5-yl)butan-1-one]	0.1 to 1	–	1 to 10	0.1 to 1	–
< 0.1	Cc1cc(F)cnc1N1CCN(C(=O)CCCc2cccc3ncccc23)CC1 [Example 55, 1-(4-(5-fluoro-3-methylpyridin-2-yl)piperazin-1-yl)-4-(quinolin-5-yl)butan-1-one]	–	0.1 to 1	1 to 10	–	–
0.1 to 1	CC1CN(c2ccncc2)CCN1C(=O)CCCc1cccc2ncccc12 (stereo not drawn) [Example 56, 1-(2-methyl-4-(pyridin-4-yl)piperazin-1-yl)-4-(quinolin-5-yl)butan-1-one]	–	0.1 to 1	1 to 10	–	–
0.1 to 1	O=C(CCCc1cccc2ncccc12)N1CC2CC1CN2c1ccncc1 (stereo not drawn) [Example 57, 1-(5-(pyridin-4-yl)-2,5-diazabicyclo[2.2.1]heptan-2-yl)-4-(quinolin-5-yl)butan-1-one]	–	1 to 10	1 to 10	–	–
< 0.1	CC1CN(C(=O)CCCc2cccc3ncccc23)CCN1c1ccncc1 (stereo not drawn) [Example 60, 1-(3-methyl-4-(pyridin-4-yl)piperazin-1-yl)-4-(quinolin-5-yl)butan-1-one]	–	0.1 to 1	1 to 10	–	–
0.1 to 1	O=C(CCCc1cccc2ncccc12)N1CCN(c2ccncc2F)CC1 [Example 67, 1-(4-(3-fluoropyridin-4-yl)piperazin-1-yl)-4-(quinolin-5-yl)butan-1-one]	–	> 10	1 to 10	–	–
1 to 10	N#Cc1cnccc1N1CCN(C(=O)CCCc2cccc3ncccc23)CC1 [Example 68, 4-(4-(4-(quinolin-5-yl)butanoyl)piperazin-1-yl)nicotinonitrile]	–	> 10	1 to 10	–	–

SMILES	IC50 [1, 6] [µM]	IC50 [1] [µM]	IC50 [2, 4] [µM]	IC50 [3, 5] [µM]	IC50 [2] [µM]	IC50 [3] [µM]
O=C(COCc1cccc2cnccc12)N1C[C@H]2CC[C@@H](C1)N2c1ccc(F)cn1 [Example 47, 1-((1R,5S)-8-(5-fluoropyridin-2-yl)-3,8-diazabicyclo[3.2.1]octan-3-yl)-2-(isoquinolin-5-ylmethoxy)ethan-1-one]	1 to 10	–	1 to 10	> 10	–	–
O=C(N1CC(Oc2cccc3ncccc23)C1)N1C[C@H]2CC[C@@H](C1)N2c1ccc(F)cn1 [Example 50, ((1R,5S)-8-(5-fluoropyridin-2-yl)-3,8-diazabicyclo[3.2.1]octan-3-yl)(3-(quinolin-5-yloxy)azetidin-1-yl)methanone]	1 to 10	–	1 to 10	> 10	–	–
O=C([C@H]1C[C@H](Oc2cccc3ncsc23)C1)N1CC2CCC(C1)N2c1ccc(F)cn1 [Example 63, ((1r,3R)-3-(benzo[d]thiazol-7-yloxy)cyclobutyl)((1R,5S)-8-(5-fluoropyridin-2-yl)-3,8-diazabicyclo[3.2.1]octan-3-yl)methanone]	1 to 10	–	–	> 10	0.1 to 1	–
O=C([C@H]1C[C@H](Oc2cccc3ncsc23)C1)N1CC2CCC(C1)N2c1ncc(Cl)cn1 [Example 64, ((1r,3R)-3-(benzo[d]thiazol-7-yloxy)cyclobutyl)((1R,5S)-8-(5-chloropyrimidin-2-yl)-3,8-diazabicyclo[3.2.1]octan-3-yl)methanone]	> 10	–	1 to 10	1 to 10	–	–
Cc1cc(N2C3CCC2CN(C(=O)[C@H]2C[C@H](Oc4cccc5ncsc45)C2)C3)ccn1 [Example 65, ((1r,3R)-3-(benzo[d]thiazol-7-yloxy)cyclobutyl)((1R,5S)-8-(2-methylpyridin-4-yl)-3,8-diazabicyclo[3.2.1]octan-3-yl)methanone]	1 to 10	–	1 to 10	> 10	–	–
